Assays:
Type in all cases: functional
[1] = tested on: MCF7; experiment: Cytotoxicity against human MCF7 cells assessed as cell growth at 10^-5 M after 48 hrs by SRB assay; conditions: MCF7, 48 h, read-out: Activity
[2] = tested on: A498; experiment: Cytotoxicity against human A498 cells assessed as cell growth at 10^-5 M after 48 hrs by SRB assay; conditions: A498, 48 h, read-out: Activity
[3] = tested on: RPMI-8226; experiment: Cytotoxicity against human RPMI8226 cells assessed as cell growth at 10^-5 M after 48 hrs by SRB assay; conditions: RPMI-8226, 48 h, read-out: Activity
[4] = tested on: NCI-H522; experiment: Cytotoxicity against human NCI-H522 cells assessed as cell growth at 10^-5 M after 48 hrs by SRB assay; conditions: NCI-H522, 48 h, read-out: Activity
[5] = tested on: HOP-92; experiment: Cytotoxicity against human HOP92 cells assessed as cell growth at 10^-5 M after 48 hrs by SRB assay; conditions: HOP-92, 48 h, read-out: Activity
[6] = tested on: K562; experiment: Cytotoxicity against human K562 cells assessed as cell growth at 10^-5 M after 48 hrs by SRB assay; conditions: K562, 48 h, read-out: Activity
[7] = tested on: HL-60(TB); experiment: Cytotoxicity against human HL-60(TB) cells assessed as cell growth at 10^-5 M after 48 hrs by SRB assay; conditions: HL-60, 48 h, read-out: Activity
[8] = tested on: MDA-MB-468; experiment: Cytotoxicity against human MDA-MB-468 cells assessed as cell growth at 10^-5 M after 48 hrs by SRB assay; conditions: MDA-MB-468, 48 h, read-out: Activity
[9] = tested on: UO-31; experiment: Cytotoxicity against human UO31 cells assessed as cell growth at 10^-5 M after 48 hrs by SRB assay; conditions: UO-31, 48 h, read-out: Activity
[10] = tested on: IGROV-1; experiment: Cytotoxicity against human IGROV1 cells assessed as cell growth at 10^-5 M after 48 hrs by SRB assay; conditions: IGROV-1, 48 h, read-out: Activity
[11] = tested on: SNB-75; experiment: Cytotoxicity against human SNB75 cells assessed as cell growth at 10^-5 M after 48 hrs by SRB assay; conditions: SNB-75, 48 h, read-out: Activity
[12] = tested on: SF-539; experiment: Cytotoxicity against human SF539 cells assessed as cell growth at 10^-5 M after 48 hrs by SRB assay; conditions: SF-539, 48 h, read-out: Activity
[13] = tested on: UACC-62; experiment: Cytotoxicity against human UACC62 cells assessed as cell growth at 10^-5 M after 48 hrs by SRB assay; conditions: UACC-62, 48 h, read-out: Activity
[14] = tested on: PC-3; experiment: Cytotoxicity against human PC3 cells assessed as cell growth at 10^-5 M after 48 hrs by SRB assay; conditions: PC-3, 48 h, read-out: Activity
[15] = tested on: HOP-62; experiment: Cytotoxicity against human HOP62 cells assessed as cell growth at 10^-5 M after 48 hrs by SRB assay; conditions: HOP-62, 48 h, read-out: Activity
[16] = tested on: SR; experiment: Cytotoxicity against human SR cells assessed as cell growth at 10^-5 M after 48 hrs by SRB assay; conditions: read-out: Activity
[17] = tested on: CAKI-1; experiment: Cytotoxicity against human Caki1 cells assessed as cell growth at 10^-5 M after 48 hrs by SRB assay; conditions: CAKI-1, 48 h, read-out: Activity
[18] = tested on: A549; experiment: Cytotoxicity against human A549/ATCC cells assessed as cell growth at 10^-5 M after 48 hrs by SRB assay; conditions: A549, 48 h, read-out: Activity

Work on `Nc1c(C(=O)Nc2ccc(F)cc2)nnn1-c1cccc(C(F)(F)F)c1` yielded a growth at 10 µM [1] of 82.5%, a growth at 10 µM [2] of 81.7% and a growth at 10 µM [3] of 81.4%.

`Nc1c(C(=O)NC2CCCC2)nnn1-c1cccc(C(F)(F)F)c1` gave a growth at 10 µM [2] of 89.1% and a growth at 10 µM [4] of 87%.

For `COc1ccc(NC(=O)c2nnn(-c3cccc(C(F)(F)F)c3)c2N)c(OC)c1`, the growth at 10 µM [5] was 77.3%, the growth at 10 µM [6] was 71.7% and the growth at 10 µM [7] was 78.4%.

`Nc1c(C(=O)c2c[nH]c3ccccc23)nnn1-c1ccccc1` showed a growth at 10 µM [8] of 78.5% and a growth at 10 µM [1] of 73.7%.

`Cc1c(C(=O)Nc2cccc(C(F)(F)F)c2)nnn1-c1ccc2noc(-c3ccccc3)c2c1` gave a growth at 10 µM [9] of 78.5% and a growth at 10 µM [6] of 89.8%.

`COc1cccc(NC(=O)c2nnn(-c3ccc4noc(-c5ccc(Cl)cc5)c4c3)c2C)c1` gave a growth at 10 µM [8] of 56.6%, a growth at 10 µM [10] of 49.9% and a growth at 10 µM [11] of 46.6%. For the same compound, the growth at 10 µM [12] was 54.1%, the growth at 10 µM [4] was 62% and the growth at 10 µM [5] was 61.5%.

`Cc1c(C(=O)NCc2ccco2)nnn1-c1ccc2noc(-c3ccc(Cl)cc3)c2c1` was tested, and the growth at 10 µM [8] was 68%, the growth at 10 µM [9] was 52% and the growth at 10 µM [2] was 56.2%. It also gave a growth at 10 µM [13] of 64.2% and a growth at 10 µM [3] of 65.3%.

`CCc1c(C(=O)Nc2ccccc2Cl)nnn1-c1ccc2noc(-c3ccccc3)c2c1` was tested, and the growth at 10 µM [14] was 60.6%, the growth at 10 µM [5] was 58.4% and the growth at 10 µM [15] was 74.2%. For the same compound, the growth at 10 µM [3] was 76.2%.

`CCc1c(C(=O)Nc2cccc(Cl)c2)nnn1-c1ccc2noc(-c3ccccc3)c2c1` was tested, and the growth at 10 µM [1] was 81.7%, the growth at 10 µM [9] was 82.6% and the growth at 10 µM [16] was 77.6%.

Compound `CCc1c(C(=O)Nc2ccc(Cl)cc2)nnn1-c1ccc2noc(-c3ccccc3)c2c1` has a growth at 10 µM [9] of 67.8%, a growth at 10 µM [13] of 83.6% and a growth at 10 µM [4] of 88.9%. The growth at 10 µM [16] was 85.1%.

For `Cc1c(C(=O)Nc2ncc(Cc3ccccc3)s2)nnn1-c1ccccc1`, the growth at 10 µM [17] was 80% and the growth at 10 µM [18] was 80.3%.

— ChEMBL document CHEMBL2424636, “Synthesis and anticancer activity evaluation of new 1,2,3-triazole-4-carboxamide derivatives” (2013)
